Measurements reported in ChEMBL document CHEMBL1201862, “PubChem BioAssay data set” (2004).
Activity calls are given as the source filed them.

Columns and labels:
[1] = cytotoxicity in HEK293 background cells – cell-based, dry powder, set 2, counter-screen for EBV LMP1 inhibitor project, dose response (AID 624374); format: functional
[2] = inhibitors of EBV LMP1 NF-kappaB signaling – cell-based, luciferase reporter, luminescence, dry powder, set 2, dose response (AID 624376); format: functional
cells [3] = format: functional, cell-based
[4] = target: T1, Trace amine-associated receptor 1 (Homo sapiens, UniProt Q96RJ0); experiment: Fluorescence-based cell-based high throughput dose response assay to identify agonists of the human trace amine associated receptor 1 (TAAR1).; format: functional
cells [5] = format: functional, cell-based; remark: listed apart in the source
[6] = target: T1, Trace amine-associated receptor 1; experiment: Counterscreen for agonists of the human trace amine associated receptor 1 (hTAAR1): Fluorescence-based cell-based high throughput dose response assay to identify hTAAR1 agonist that also desensitize TAAR1 receptor response.; format: functional
Beta-galactosidase = Beta-galactosidase (Escherichia coli, UniProt Q8VNN2); experiment: Dose response counterscreen for EBI2 assay utilizing the enzyme, b-galactosidase.; format: functional
INS1 = experiment: INS-1E survival protection against cytokine death – cell-based, luminescence, retest, dose response (AID 449756); format: functional; details: Rattus norvegicus;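 also: cell death triggered by IL-1 beta plus TNF-alpha plus IFN-gamma mixture; protective hits raise ATP signal compared with cytokine alone wells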
[7] = target: COUP transcription factor 2 (Homo sapiens, UniProt P24468); experiment: Luminescence-based cell-based high throughput dose response assay to identify inhibitors of COUP-TFII (NR2F2).; format: functional;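 also: HEK293 cells transiently cotransfected with COUP-TFII expression vector and reporter; luciferase reporter luminescence driven by COUP-TFII from the pX2-168 reporter plasmid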
[8] = target: Disintegrin and metalloproteinase domain-containing protein 17 (Homo sapiens, UniProt P78536); experiment: inhibition of ADAM17 substrate cleavage – biochemical, quenched FRET substrate, counter-screen for ADAM10 exosite inhibitor project, dose response (AID 743253)
[9] = potency of ADAM10 substrate cleavage blockers – biochemical, QFRET, dose response (AID 743254);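 also: ADAM10 enzyme with the DM2 quenched FRET peptide as substrate; EDANS fluorescence gain as the protease cuts the substrate; inhibitor potency against ADAM10 proteolytic activity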
[10] = A Cell-Based Confirmatory Screen for Compounds that Inhibit VEEV, TC-83 (8).; format: functional
[11] = target: T2, Carboxy-terminal domain RNA polymerase II polypeptide A small phosphatase 1 (Homo sapiens, UniProt Q9GZU7); experiment: CTDSP1 inhibitors, concentration-response, biochemical, absorbance readout, ultra-high-throughput screen actives (AID 540297); format: functional
T2 sequence (Q9GZU7 whole entry): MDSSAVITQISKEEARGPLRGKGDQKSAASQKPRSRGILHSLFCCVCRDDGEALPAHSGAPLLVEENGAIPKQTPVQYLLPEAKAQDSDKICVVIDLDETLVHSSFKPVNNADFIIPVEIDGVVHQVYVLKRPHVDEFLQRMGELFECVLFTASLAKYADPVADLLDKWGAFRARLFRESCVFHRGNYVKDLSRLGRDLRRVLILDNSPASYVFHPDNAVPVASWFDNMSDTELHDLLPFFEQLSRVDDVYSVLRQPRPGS

[12] = target: T3, Low molecular weight phosphotyrosine protein phosphatase (Homo sapiens, UniProt P24666); format: functional; details: read-out: IC50_Mean
T3 sequence (P24666 whole entry): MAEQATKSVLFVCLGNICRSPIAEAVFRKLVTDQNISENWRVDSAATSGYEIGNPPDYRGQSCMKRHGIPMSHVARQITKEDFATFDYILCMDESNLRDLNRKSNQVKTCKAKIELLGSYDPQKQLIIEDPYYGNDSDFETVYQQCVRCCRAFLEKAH

[13] = target: T3, Low molecular weight phosphotyrosine protein phosphatase; format: functional; details: read-out: IC50_Mean; remark: listed apart in the source
cells [14] = experiment: cells
Major prion protein = Major prion protein (Homo sapiens, UniProt P04156); format: functional, cell-based
[15] = target: T4, Oxysterols receptor LXR-beta (Homo sapiens, UniProt P55055); format: functional, cell-based;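 also: agonist activity at LXR measured by a cell-based luminescence readout across a dose range, run as a counterscreen for daf-12 agonists; HEK293 cells with Gal4-LXR fusion and GAL4-driven luciferase reporter; potency for activation of Gal4-LXR reporter so compounds are agonists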
T4 sequence (P55055 whole entry): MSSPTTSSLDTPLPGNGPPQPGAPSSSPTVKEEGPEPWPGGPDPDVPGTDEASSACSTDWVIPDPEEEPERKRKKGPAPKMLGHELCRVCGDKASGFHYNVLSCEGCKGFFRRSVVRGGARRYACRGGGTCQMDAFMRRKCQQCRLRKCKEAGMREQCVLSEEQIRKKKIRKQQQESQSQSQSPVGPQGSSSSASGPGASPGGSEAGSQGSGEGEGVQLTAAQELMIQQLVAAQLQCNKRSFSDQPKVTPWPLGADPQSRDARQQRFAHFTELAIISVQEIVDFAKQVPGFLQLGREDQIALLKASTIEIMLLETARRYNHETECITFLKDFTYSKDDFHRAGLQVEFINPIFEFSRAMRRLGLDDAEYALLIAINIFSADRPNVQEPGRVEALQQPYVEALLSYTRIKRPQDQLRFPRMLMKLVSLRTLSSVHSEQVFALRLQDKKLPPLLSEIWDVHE

CO[C@H](CN(C)S(=O)(=O)c1cccc(Cl)c1)[C@@H](C)CN([C@H](C)CO)S(=O)(=O)c1ccc(Cl)cc1
AbsAC35 [1]: 104.79 µM | AbsAC35 [2]: 36.95 µM

CC(=NCCc1ccc(O)cc1)C1=C(O)OCC1
EC50 (cells [3]): > 29.9 µM (inactive) | EC50 [4]: 2.05 µM (active) | IC50 (cells [5]): > 29.9 µM (inactive) | IC50 [6]: 9.27 µM (active)

COc1cc(-c2nc3ccc(C)cn3c2NCc2ccccc2)ccc1-c1cccc(Cl)c1
IC50 (Beta-galactosidase): 96 µM (inactive) | AC50 (INS1): 5.14 µM (active)

Cc1nn(C)c(C)c1NC(=O)COc1ccc(Cl)cc1Br
IC50 [7]: 8.76 µM (active)

O=C(CC1S/C(=N\c2ccccc2)N(Cc2ccccn2)C1=O)Nc1ccc(Br)cc1 (stereo not drawn)
IC50 [8]: > 69.5 µM (inactive) | IC50 [9]: 37.4 µM (inactive)

CN1CCN(C)/C(=N/c2cc(Cl)c(C#N)cc2C(=O)Nc2ccccc2)C1
IC50 [10]: < 0.26 µM (active)

N=c1c2ccccc2nnn1-c1ccc(C(F)(F)F)cc1
IC50 [11]: 8.01 µM (active) | IC50 [12]: 12.8 µM (active) | IC50 [13]: 18.8 µM (active)

CN(C)S(=O)(=O)c1ccc(N2CCCC2)c(C(=O)Nc2nc3ccccc3s2)c1
IC50 (cells [14]): > 138 µM (inactive) | IC50 (Major prion protein): 10.4 µM (inactive)

Nc1c(-c2cccs2)cnc2c(-c3ccc(F)cc3)cnn12
EC50 [15]: > 67.5 µM (inactive)
